pEC50, pIC50: −log10 of the molar value. Activity calls are given as the source filed them. The rule behind the calls is not given here.
Legend:
[1] = biological target: T1, Epithelial discoidin domain-containing receptor 1 (Homo sapiens, UniProt Q08345); test: Inhibition of human DDR1 using (poly [Glu, Tyr] 4:1) as substrate assessed as incorporation of 33P in substrate by [gamma33P] ATP-based kinase assay
[2] = biological target: T2, Serine/threonine-protein kinase mTOR (Homo sapiens, UniProt P42345); test: Inhibition of recombinant human mTOR by LanthaScreen Kinase assay
[3] = biological target: T3, Phosphatidylinositol 4,5-bisphosphate 3-kinase catalytic subunit alpha isoform (Homo sapiens, UniProt P42336); test: Inhibition of PI3Kalpha (unknown origin) using PIP2 as substrate by HTRF assay
[4] = biological target: T4, Phosphatidylinositol 4,5-bisphosphate 3-kinase catalytic subunit beta isoform (Homo sapiens, UniProt P42338); test: Inhibition of PI3Kbeta (unknown origin) using PIP2 as substrate by HTRF assay
[5] = biological target: T5, Phosphatidylinositol 4,5-bisphosphate 3-kinase catalytic subunit gamma isoform (Homo sapiens, UniProt P48736); test: Inhibition of PI3Kgamma (unknown origin) using PIP2 as substrate by HTRF assay
[6] = biological target: T6, Phosphatidylinositol 4,5-bisphosphate 3-kinase catalytic subunit delta isoform (Homo sapiens, UniProt O00329); test: Inhibition of PI3Kdelta (unknown origin) using PIP2 as substrate by HTRF assay
T6 sequence (O00329 whole entry): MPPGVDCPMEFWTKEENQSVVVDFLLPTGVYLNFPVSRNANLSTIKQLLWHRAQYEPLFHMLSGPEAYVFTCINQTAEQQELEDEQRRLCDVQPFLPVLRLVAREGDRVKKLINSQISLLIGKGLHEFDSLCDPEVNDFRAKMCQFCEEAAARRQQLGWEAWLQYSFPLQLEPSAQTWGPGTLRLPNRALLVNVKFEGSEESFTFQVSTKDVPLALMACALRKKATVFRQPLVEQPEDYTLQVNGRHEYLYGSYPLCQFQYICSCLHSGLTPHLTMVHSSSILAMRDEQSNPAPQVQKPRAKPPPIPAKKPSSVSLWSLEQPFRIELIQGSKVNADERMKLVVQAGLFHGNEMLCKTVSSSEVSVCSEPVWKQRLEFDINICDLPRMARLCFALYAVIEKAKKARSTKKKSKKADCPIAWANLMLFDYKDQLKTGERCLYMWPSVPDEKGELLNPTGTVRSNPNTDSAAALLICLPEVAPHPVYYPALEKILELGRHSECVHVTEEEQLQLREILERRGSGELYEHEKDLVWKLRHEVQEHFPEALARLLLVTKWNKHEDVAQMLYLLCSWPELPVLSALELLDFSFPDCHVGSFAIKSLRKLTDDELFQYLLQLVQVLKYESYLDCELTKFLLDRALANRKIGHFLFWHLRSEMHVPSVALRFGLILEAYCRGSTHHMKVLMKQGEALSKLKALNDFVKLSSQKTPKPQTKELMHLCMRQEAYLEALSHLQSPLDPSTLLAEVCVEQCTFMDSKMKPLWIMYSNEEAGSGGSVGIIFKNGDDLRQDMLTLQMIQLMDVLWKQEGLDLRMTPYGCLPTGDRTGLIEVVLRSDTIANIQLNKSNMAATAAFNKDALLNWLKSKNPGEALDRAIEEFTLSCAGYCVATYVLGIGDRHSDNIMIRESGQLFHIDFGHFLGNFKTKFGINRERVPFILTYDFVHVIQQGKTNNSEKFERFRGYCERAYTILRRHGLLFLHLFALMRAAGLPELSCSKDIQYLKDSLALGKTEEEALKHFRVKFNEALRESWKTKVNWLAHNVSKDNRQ

[7] = biological target: T7, DNA-dependent protein kinase catalytic subunit (Homo sapiens, UniProt P78527); test: Inhibition of human DNA-PK using (poly [Glu, Tyr] 4:1) as substrate assessed as incorporation of 33P in substrate by [gamma33P] ATP-based kinase assay
MCF7 [8] = test: Cytotoxicity against human MCF7 cells after 5 days by Presto blue reagent-based fluorescence analysis; format: functional, cell-based; details: for pEC50: MCF7, 120 h
MDA-MB-231 [9] = test: Cytotoxicity against human MDA-MB-231 cells after 5 days by Presto blue reagent-based spectrofluorometric analysis; format: functional, cell-based; details: MDA-MB-231, 120 h
[10] = Cytotoxicity against human PC3 cells after 5 days by Presto blue reagent-based spectrofluorometric analysis; format: functional, cell-based; details: PC-3, 120 h
MCF7 [11] = test: Cell cycle arrest in human MCF7 cells assessed as increase in G0/G1 population after 24 hrs by Hoechst 33342 staining-based fluorescence analysis; format: functional
MDA-MB-231 [12] = test: Cell cycle arrest in human MDA-MB-231 cells assessed as increase in G0/G1 population after 24 hrs by Hoechst 33342 staining-based fluorescence analysis; format: functional
[13] = Cell cycle arrest in human PC3 cells assessed as increase in G0/G1 population after 24 hrs by Hoechst 33342 staining-based fluorescence analysis; format: functional; details: PC-3
[14] = biological target: Tyrosine-protein kinase Blk (Homo sapiens, UniProt P51451); test: Inhibition of human BLK using (poly [Glu, Tyr] 4:1) as substrate assessed as incorporation of 33P in substrate by [gamma33P] ATP-based kinase assay
[15] = biological target: Tyrosine-protein kinase ABL1 (Homo sapiens, UniProt P00519); test: Inhibition of human ABL using (poly [Glu, Tyr] 4:1) as substrate assessed as incorporation of 33P in substrate by [gamma33P] ATP-based kinase assay
[16] = biological target: Platelet-derived growth factor receptor alpha (Homo sapiens, UniProt P16234); test: Inhibition of human PDGFRalpha using (poly [Glu, Tyr] 4:1) as substrate assessed as incorporation of 33P in substrate by [gamma33P] ATP-based kinase assay
[17] = biological target: Tyrosine-protein kinase Fyn (Homo sapiens, UniProt P06241); test: Inhibition of human FYN using (poly [Glu, Tyr] 4:1) as substrate assessed as incorporation of 33P in substrate by [gamma33P] ATP-based kinase assay
[18] = biological target: Mast/stem cell growth factor receptor Kit (Homo sapiens, UniProt P10721); test: Inhibition of human KIT using (poly [Glu, Tyr] 4:1) as substrate assessed as incorporation of 33P in substrate by [gamma33P] ATP-based kinase assay
[19] = biological target: Proto-oncogene tyrosine-protein kinase receptor Ret (Homo sapiens, UniProt P07949); test: Inhibition of human RET using (poly [Glu, Tyr] 4:1) as substrate assessed as incorporation of 33P in substrate by [gamma33P] ATP-based kinase assay
[20] = biological target: Proto-oncogene tyrosine-protein kinase Src (Homo sapiens, UniProt P12931); test: Inhibition of human SRC using (poly [Glu, Tyr] 4:1) as substrate assessed as incorporation of 33P in substrate by [gamma33P] ATP-based kinase assay
[21] = biological target: Tyrosine-protein kinase Yes (Homo sapiens, UniProt P07947); test: Inhibition of human YES using (poly [Glu, Tyr] 4:1) as substrate assessed as incorporation of 33P in substrate by [gamma33P] ATP-based kinase assay
[22] = biological target: T3, Phosphatidylinositol 4,5-bisphosphate 3-kinase catalytic subunit alpha isoform; test: Inhibition of PI3Kalpha (unknown origin) using (poly [Glu, Tyr] 4:1) as substrate assessed as incorporation of 33P in substrate by [gamma33P] ATP-based kinase assay
[23] = biological target: T4, Phosphatidylinositol 4,5-bisphosphate 3-kinase catalytic subunit beta isoform; test: Inhibition of PI3Kbeta (unknown origin) using (poly [Glu, Tyr] 4:1) as substrate assessed as incorporation of 33P in substrate by [gamma33P] ATP-based kinase assay
[24] = biological target: T5, Phosphatidylinositol 4,5-bisphosphate 3-kinase catalytic subunit gamma isoform; test: Inhibition of PI3Kgamma (unknown origin) using (poly [Glu, Tyr] 4:1) as substrate assessed as incorporation of 33P in substrate by [gamma33P] ATP-based kinase assay
[25] = biological target: T6, Phosphatidylinositol 4,5-bisphosphate 3-kinase catalytic subunit delta isoform; test: Inhibition of PI3Kdelta (unknown origin) using (poly [Glu, Tyr] 4:1) as substrate assessed as incorporation of 33P in substrate by [gamma33P] ATP-based kinase assay
[26] = biological target: T3, Phosphatidylinositol 4,5-bisphosphate 3-kinase catalytic subunit alpha isoform; test: Inhibition of human PI3Kalpha at 10 uM by kinome profiling method
[27] = biological target: T2, Serine/threonine-protein kinase mTOR; test: Inhibition of human mTOR at 10 uM by kinome profiling method
[28] = biological target: T5, Phosphatidylinositol 4,5-bisphosphate 3-kinase catalytic subunit gamma isoform; test: Inhibition of human PI3Kgamma at 10 uM by kinome profiling method
[29] = biological target: T7, DNA-dependent protein kinase catalytic subunit; test: Inhibition of human DNA-PK at 10 uM by kinome profiling method
[30] = biological target: T1, Epithelial discoidin domain-containing receptor 1; test: Inhibition of human DDR1 at 10 uM by kinome profiling method
mTORC1 (Homo sapiens) [31] = biological target: T8, mTORC1 (Homo sapiens) (UniProt P42345+Q8N122+Q9BVC4); test: Inhibition of mTORC1 in human MCF7 cells assessed as reduction in phosphorylated P70S6K preincubated for 30 mins followed by serum stimulation for 1 hr by Western blot analysis; format: cell-based
mTORC1 (Homo sapiens) [32] = biological target: T8, mTORC1 (Homo sapiens); test: Inhibition of mTORC1 in human MCF7 cells assessed as reduction in phosphorylated S6 preincubated for 30 mins followed by serum stimulation for 1 hr by Western blot analysis; format: cell-based
MCF7 [33] = test: Inhibition of mTORC2 in human MCF7 cells assessed as reduction in phosphorylated AKT level preincubated for 30 mins followed by serum stimulation for 1 hr by Western blot analysis; format: cell-based
mTORC1 (Homo sapiens) [34] = biological target: T8, mTORC1 (Homo sapiens); test: Inhibition of mTORC1 in human MCF7 cells assessed as reduction in phosphorylated P70S6K at 30 nM preincubated for 30 mins followed by serum stimulation for 1 hr by Western blot analysis; format: cell-based
mTORC1 (Homo sapiens) [35] = biological target: T8, mTORC1 (Homo sapiens); test: Inhibition of mTORC1 in human MCF7 cells assessed as reduction in phosphorylated S6 at 30 nM preincubated for 30 mins followed by serum stimulation for 1 hr by Western blot analysis; format: cell-based
MCF7 [36] = test: Inhibition of mTORC2 in human MCF7 cells assessed as reduction in phosphorylated AKT level at 30 nM preincubated for 30 mins followed by serum stimulation for 1 hr by Western blot analysis; format: cell-based
[37] = biological target: T2, Serine/threonine-protein kinase mTOR; test: Inhibition of human mTOR using (poly [Glu, Tyr] 4:1) as substrate assessed as incorporation of 33P in substrate by [gamma33P] ATP-based kinase assay
MCF7 [38] = test: Cytotoxicity against human MCF7 cells assessed as cell viability at 1000 nM after 5 days by Presto blue reagent-based spectrofluorometric analysis; format: functional; details: MCF7, 120 h, read-out: Activity

T4 sequence (P42338 whole entry, canonical isoform): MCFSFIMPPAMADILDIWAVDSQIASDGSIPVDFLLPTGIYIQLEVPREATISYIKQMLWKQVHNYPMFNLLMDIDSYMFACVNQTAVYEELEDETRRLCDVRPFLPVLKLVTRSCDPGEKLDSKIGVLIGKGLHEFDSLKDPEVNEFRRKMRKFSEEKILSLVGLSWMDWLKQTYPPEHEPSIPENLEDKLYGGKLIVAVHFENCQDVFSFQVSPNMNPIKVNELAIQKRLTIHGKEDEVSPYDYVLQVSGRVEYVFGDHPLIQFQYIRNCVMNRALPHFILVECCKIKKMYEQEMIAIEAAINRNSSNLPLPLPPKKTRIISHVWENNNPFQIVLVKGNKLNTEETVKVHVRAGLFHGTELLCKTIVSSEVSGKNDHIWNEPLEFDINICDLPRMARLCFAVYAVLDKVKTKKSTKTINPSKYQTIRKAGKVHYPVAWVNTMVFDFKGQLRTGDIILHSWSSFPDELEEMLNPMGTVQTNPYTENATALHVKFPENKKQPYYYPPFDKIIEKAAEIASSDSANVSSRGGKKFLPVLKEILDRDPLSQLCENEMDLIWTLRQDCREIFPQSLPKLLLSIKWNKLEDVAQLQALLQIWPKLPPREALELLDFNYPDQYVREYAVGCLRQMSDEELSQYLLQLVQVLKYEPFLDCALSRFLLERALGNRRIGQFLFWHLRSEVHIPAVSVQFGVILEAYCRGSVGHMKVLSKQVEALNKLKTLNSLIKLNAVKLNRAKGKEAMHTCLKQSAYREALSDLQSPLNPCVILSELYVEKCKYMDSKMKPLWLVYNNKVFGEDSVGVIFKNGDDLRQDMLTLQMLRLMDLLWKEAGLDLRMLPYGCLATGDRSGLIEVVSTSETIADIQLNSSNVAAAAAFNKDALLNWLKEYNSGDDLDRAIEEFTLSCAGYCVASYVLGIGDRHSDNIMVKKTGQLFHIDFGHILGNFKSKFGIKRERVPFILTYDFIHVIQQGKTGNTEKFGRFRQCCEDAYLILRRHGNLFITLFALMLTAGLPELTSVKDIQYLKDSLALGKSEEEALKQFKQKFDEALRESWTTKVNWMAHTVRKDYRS
T1 sequence (Q08345 whole entry, the tested form may be a part): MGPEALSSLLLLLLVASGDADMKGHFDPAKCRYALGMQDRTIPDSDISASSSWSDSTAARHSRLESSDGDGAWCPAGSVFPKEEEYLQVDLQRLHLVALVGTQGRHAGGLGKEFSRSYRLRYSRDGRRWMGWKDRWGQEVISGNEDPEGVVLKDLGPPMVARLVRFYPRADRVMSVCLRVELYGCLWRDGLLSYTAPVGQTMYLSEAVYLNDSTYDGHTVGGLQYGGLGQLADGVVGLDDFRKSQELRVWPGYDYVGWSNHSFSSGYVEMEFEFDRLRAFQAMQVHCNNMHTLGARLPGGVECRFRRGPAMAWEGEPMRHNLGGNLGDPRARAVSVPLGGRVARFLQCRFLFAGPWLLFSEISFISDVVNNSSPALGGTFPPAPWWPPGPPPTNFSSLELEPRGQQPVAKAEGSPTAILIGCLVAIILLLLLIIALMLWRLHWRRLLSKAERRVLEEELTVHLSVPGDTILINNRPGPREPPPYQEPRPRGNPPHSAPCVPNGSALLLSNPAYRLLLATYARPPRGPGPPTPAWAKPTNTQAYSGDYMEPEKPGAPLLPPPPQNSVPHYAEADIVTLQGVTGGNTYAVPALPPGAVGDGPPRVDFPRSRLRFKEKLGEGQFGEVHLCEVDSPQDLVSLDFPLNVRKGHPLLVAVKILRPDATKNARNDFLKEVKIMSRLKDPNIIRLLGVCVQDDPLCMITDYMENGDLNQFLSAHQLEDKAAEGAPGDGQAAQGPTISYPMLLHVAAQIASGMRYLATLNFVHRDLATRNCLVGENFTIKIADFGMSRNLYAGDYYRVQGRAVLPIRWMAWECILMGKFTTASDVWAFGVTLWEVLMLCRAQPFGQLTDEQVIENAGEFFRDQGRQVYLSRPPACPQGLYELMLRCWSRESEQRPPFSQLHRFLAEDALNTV
T8 sequence (Q8N122 whole entry, looked up, other chains not shown): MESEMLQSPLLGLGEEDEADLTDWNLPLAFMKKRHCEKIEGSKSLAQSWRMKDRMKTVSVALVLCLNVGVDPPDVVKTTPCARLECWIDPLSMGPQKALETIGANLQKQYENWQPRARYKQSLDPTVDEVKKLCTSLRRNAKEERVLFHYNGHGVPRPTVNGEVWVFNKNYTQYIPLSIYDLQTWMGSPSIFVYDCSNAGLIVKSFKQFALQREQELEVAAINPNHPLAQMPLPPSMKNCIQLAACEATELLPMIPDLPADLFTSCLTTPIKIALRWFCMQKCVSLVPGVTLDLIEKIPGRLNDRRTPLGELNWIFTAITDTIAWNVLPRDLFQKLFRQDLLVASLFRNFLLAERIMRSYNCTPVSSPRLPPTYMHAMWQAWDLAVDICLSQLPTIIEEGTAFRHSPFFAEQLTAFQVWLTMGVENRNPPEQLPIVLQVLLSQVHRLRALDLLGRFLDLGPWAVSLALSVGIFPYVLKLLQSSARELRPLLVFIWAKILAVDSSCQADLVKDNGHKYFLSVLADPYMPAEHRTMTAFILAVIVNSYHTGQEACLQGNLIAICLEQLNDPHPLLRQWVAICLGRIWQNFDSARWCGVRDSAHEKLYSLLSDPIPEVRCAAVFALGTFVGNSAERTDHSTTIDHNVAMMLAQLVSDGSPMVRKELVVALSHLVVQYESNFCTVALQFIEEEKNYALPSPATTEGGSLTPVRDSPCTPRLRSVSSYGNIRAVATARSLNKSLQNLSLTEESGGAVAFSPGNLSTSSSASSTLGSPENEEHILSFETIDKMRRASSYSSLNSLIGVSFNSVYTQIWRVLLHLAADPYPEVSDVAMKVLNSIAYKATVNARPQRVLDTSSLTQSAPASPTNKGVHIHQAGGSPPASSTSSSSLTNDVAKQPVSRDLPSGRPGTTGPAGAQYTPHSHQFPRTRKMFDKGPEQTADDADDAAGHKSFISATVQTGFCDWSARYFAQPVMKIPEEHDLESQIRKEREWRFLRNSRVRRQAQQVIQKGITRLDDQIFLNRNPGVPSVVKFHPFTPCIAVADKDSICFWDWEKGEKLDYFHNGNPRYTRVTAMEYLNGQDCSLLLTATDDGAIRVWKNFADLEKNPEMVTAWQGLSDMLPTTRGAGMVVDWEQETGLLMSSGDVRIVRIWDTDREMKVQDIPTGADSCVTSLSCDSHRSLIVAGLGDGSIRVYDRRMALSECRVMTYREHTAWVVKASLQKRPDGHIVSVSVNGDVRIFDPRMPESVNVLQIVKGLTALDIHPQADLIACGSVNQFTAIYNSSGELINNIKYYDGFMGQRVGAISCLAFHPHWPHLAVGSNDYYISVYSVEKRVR
T8 sequence (Q9BVC4 whole entry, looked up, other chains not shown): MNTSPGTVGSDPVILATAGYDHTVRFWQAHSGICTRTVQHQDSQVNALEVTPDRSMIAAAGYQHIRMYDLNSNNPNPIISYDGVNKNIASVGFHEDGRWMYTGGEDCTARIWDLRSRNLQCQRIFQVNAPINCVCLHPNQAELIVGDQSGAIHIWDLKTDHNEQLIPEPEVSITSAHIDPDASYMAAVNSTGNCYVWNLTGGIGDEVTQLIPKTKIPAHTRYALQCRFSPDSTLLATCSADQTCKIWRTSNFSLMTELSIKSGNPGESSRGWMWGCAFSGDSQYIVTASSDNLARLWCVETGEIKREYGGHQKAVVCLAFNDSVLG
T3 sequence (P42336 whole entry, canonical isoform): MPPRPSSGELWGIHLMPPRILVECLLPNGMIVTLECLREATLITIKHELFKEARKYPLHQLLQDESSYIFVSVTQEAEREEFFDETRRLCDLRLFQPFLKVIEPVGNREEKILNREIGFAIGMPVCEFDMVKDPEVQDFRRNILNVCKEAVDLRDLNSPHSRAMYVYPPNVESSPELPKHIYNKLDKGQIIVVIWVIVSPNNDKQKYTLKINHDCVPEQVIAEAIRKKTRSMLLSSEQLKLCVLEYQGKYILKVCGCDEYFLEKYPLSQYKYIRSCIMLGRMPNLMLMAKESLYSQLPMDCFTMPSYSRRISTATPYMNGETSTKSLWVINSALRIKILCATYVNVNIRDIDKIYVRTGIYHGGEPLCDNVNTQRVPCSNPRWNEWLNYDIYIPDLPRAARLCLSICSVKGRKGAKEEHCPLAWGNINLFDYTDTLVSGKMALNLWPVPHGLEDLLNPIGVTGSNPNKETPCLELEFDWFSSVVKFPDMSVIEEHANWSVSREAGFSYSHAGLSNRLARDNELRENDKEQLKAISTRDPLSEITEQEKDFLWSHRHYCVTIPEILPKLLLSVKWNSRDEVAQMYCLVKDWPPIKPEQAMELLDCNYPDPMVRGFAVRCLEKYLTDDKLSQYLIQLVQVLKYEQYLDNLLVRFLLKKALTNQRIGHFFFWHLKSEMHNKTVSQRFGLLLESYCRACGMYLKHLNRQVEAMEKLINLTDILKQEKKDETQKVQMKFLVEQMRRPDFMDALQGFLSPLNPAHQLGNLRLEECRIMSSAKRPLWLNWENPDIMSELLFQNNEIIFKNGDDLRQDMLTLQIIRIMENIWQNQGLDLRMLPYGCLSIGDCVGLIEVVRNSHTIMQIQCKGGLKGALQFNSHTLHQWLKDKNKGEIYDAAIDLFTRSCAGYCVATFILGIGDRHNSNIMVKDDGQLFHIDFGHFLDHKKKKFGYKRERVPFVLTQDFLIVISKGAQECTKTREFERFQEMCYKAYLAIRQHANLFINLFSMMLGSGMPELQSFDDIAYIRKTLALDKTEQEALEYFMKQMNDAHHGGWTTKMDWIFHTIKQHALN

Row | pIC50 [1] | pIC50 [2] | pIC50 [3] | pIC50 [4] | pIC50 [5] | pIC50 [6] | pIC50 [7] | pIC50 [14] | pIC50 [15] | pIC50 [16] | pIC50 [17] | pIC50 [18] | pIC50 [19] | pIC50 [20] | Compound | pEC50 (MCF7 [8]) | pEC50 (MDA-MB-231 [9]) | pEC50 [10] | Activity (MCF7 [11]) | Activity (MDA-MB-231 [12]) | Activity [13] | also measured
1 | 6.86 | 8.30 | 7.36 | 5.95 | 7.11 | 6.83 | 7.32 | – | – | – | – | – | – | – | Nc1nc2cc(-c3nn(CC4CCCO4)c4ncnc(N)c34)ccc2o1 (stereo not drawn) | 8.10 | 6.95 | 7.29 | Active | Active | Active | –
2 | 5.68 | – | 6.01 | < 4.00 | 5.87 | 5.74 | 6.49 | < 4.00 | < 4.00 | < 4.00 | < 4.00 | < 4.00 | < 4.00 | < 4.00 | CCOC(Cn1nc(-c2ccc3oc(N)nc3c2)c2c(N)ncnc21)OCC | 8.10 | 7.14 | 7.43 | Active | Active | Active | pIC50 [21]: < 4.00; pIC50 [22]: 6.01; pIC50 [23]: < 4.00; pIC50 [24]: 5.87; pIC50 [25]: 5.74; inhibition [26]: 65%; inhibition [27]: 99%; inhibition [28]: 85%; inhibition [29]: 90%; inhibition [30]: 77%; inhibition (mTORC1 (Homo sapiens) [31]): Dose-dependent effect; inhibition (mTORC1 (Homo sapiens) [32]): Dose-dependent effect; inhibition (MCF7 [33]): Dose-dependent effect; inhibition (mTORC1 (Homo sapiens) [34]): 100%; inhibition (mTORC1 (Homo sapiens) [35]): 100%; inhibition (MCF7 [36]): 100%
3 | – | – | – | – | – | – | – | < 4.00 | 5.00 | < 4.00 | < 4.00 | < 4.00 | < 4.00 | < 4.00 | COC(Cn1nc(-c2ccc3oc(N)nc3c2)c2c(N)ncnc21)OC | 8.17 | – | – | – | – | – | pIC50 [37]: 7.60; pIC50 [21]: < 4.00; pIC50 [22]: 6.52; pIC50 [23]: 5.25; pIC50 [24]: 7.00; pIC50 [25]: 6.30
4 | 8.33 | 8.74 | 8.46 | 7.05 | 8.30 | 8.14 | 8.52 | – | – | – | – | – | – | – | Nc1nc2cc(-c3nn(CC4CCCC4)c4ncnc(N)c34)ccc2o1 | 8.77 | 7.92 | 8.40 | Active | Active | Active | –
5 | – | – | – | – | – | – | – | – | – | – | – | – | – | – | Nc1ncnc2c1c(-c1cnc3[nH]ccc3c1)nn2CC1OCCO1 | – | – | – | – | – | – | Activity (MCF7 [8]): Active
6 | – | – | – | – | – | – | – | – | – | – | – | – | – | – | CO[C@H]1C[C@@H]2CC[C@@H](C)[C@@](O)(O2)C(=O)C(=O)N2CCCC[C@H]2C(=O)O[C@H]([C@H](C)C[C@@H]2CC[C@@H](O)[C@H](OC)C2)CC(=O)[C@H](C)/C=C(\C)[C@@H](O)[C@@H](OC)C(=O)[C@H](C)C[C@H](C)/C=C/C=C/C=C/1C [SIROLIMUS] | > 9.00 | – | – | – | – | – | viability at 1 µM (MCF7 [38]): 30%
